Experimental data reported in patent US20100056636A1, “N-Substituted-P-Menthane-3-Carboxamide and Uses Thereof” (priority 2006, published 2010).

Columns and labels:
[1] = cited from earlier work
small group of panelists = test: Panel tasting of aqueous solutions: cooling intensity matched to a solution of menthol at 2 ppm; assay type: in vivo, human; conditions: tasted
panel of flavourists = test: Comparative sensorial evaluation: aqueous solutions tasted by a panel of flavourists; assay type: in vivo, human
Protocol: Four aqueous solutions were prepared: A. […] 20 ppm WS-3 dissolved in solution A; and D. 2 ppm WS-3 dissolved in solution A. These solutions were tasted and evaluated by a panel of flavourists. […]

[2] = test system: panel of experienced flavourists; test: Hard boiled sweets containing cold receptor stimulant, evaluated by a panel of experienced flavourists; assay type: in vivo, human; conditions: for strength of products A, B and C relative to each other: hard boiled sweets: A 50 ppm WS-3, B 5 ppm example 1, C 2.5 ppm example 2
Protocol: The sweets were prepared according to the following procedure. Sugar, water and glucose syrup are mixed and boiled till 146° C. The mix is cooled to 120° C., the cold receptor stimulant is added and carefully mixed in. The mix is poured on a cooling table and folded in and molded on a roller.
The sweets prepared were evaluated by a panel of experienced flavourists.

## Ethyl 3-(p-menthane-3-carboxamido)acetate [(1R,3R,4S)-WS-5]
[1]; reported in US Patent Application No. 20050222256
  perceived cooling relative to WS-3: 2.5-3.0 times

## CCOc1ccccc1CCNC(=O)C1CC(C)CCC1C(C)C (stereo not shown) [Example 5, N-(2-ethoxyphenethyl)-2-isopropyl-5-methylcyclohexane-carboxamide]
Small group of panelists
  Concentration with cooling intensity similar to or slightly higher than that of a solution of menthol at 2 ppm: 0.002 ppm

## N-(3,4-dimethylphenethyl)-2-isopropyl-5-ethylcyclo-hexanecarboxamide [Example 7]
Small group of panelists
  Concentration with cooling intensity similar to or slightly higher than that of a solution of menthol at 2 ppm: 0.002 ppm

## CCNC(=O)C1CC(C)CCC1C(C)C (stereo not shown) [WS-3, N-Ethyl-p-menthane-3-carboxamide, reference compound]
Panel of flavourists; Example 3, solution C: 20 ppm WS-3 in 20 ppm menthol solution, B = 2 ppm product of example 1 in 20 ppm menthol
  sensory description of solution, compared with solution B: “more neutral cold perception than B”, “less aggressive cooling than B”, “less long-lasting cooling than B”
Panel of flavourists; Example 3, solution D: 2 ppm WS-3 in 20 ppm menthol solution, B = 2 ppm product of example 1 in 20 ppm menthol
  sensory description of solution, compared with solution B: “more neutral cold perception than B”, “less aggressive cooling than B”, “less long-lasting cooling than B”
Panel of flavourists; Example 4, solution C: 20 ppm WS-3 in 20 ppm menthol solution, B = 1 ppm product of example 2 in 20 ppm menthol
  sensory description of solution, compared with solution B: “more neutral cold perception than B”, “less aggressive cooling than B”, “less long-lasting cooling than B”
Panel of flavourists; Example 4, solution D: 2 ppm WS-3 in 20 ppm menthol solution, B = 1 ppm product of example 2 in 20 ppm menthol
  sensory description of solution, compared with solution B: “more neutral cold perception than B”, “less aggressive cooling than B”, “less long-lasting cooling than B”
[2]; Product A (control): 50 ppm WS-3
  sensory description of hard boiled sweet: “giving coolness and a cold perception” and “having an immediate cooling effect” and “not longlasting”
[2]; Product A: hard boiled sweet, dosage of 50 ppm WS-3
  feeling in the throat: irritating feeling in the throat
[2]
  strength of products A, B and C relative to each other: comparable
Small group of panelists
  Concentration with cooling intensity similar to or slightly higher than that of a solution of menthol at 2 ppm: 1.5 ppm

## Ethyl 3-(p-menthane-3-carboxamido)acetate [WS-5]
[1]; known
  coolness relative to WS-3: significantly cooler than WS-3

## CC1CCC(C(C)C)C(O)C1 (stereo not shown) [menthol, reference compound]
Panel of flavourists; solution A: 20 ppm menthol in water
  sensory description of solution: “cooling”
Small group of panelists
  Concentration with cooling intensity similar to or slightly higher than that of a solution of menthol at 2 ppm: 2.0 ppm

## CC1CCC(C(C)C)C(C(=O)N[C@H]2C[C@H]2c2ccccc2)C1 (stereo partly drawn) [Example 6, 2-isopropyl-5-methyl-N-((1S,2S)-2-phenylcyclopropyl)-cyclohexanecarboxamide]
Small group of panelists
  Concentration with cooling intensity similar to or slightly higher than that of a solution of menthol at 2 ppm: 0.1 ppm

## CC1CCC(C(C)C)C(C(=O)NCCc2ccccc2)C1 (stereo not shown) [Example 2, 2-isopropyl-5-methyl-cyclohexanecarboxylic acid phenylethyl-amide]
Panel of flavourists; Example 4, solution B: 1 ppm product of example 2 dissolved in 20 ppm menthol aqueous solution
  sensory description of solution: “cold perception with a pain sensation”, “aggressive, long-lasting cooling”, “almost noxious cold”, “slightly tingling”
Panel of flavourists; Example 4: 1 ppm product of example 2 versus 2 ppm WS-3, both in 20 ppm menthol solution
  strength of solution B relative to solution D: much stronger
Panel of flavourists; Example 4: 1 ppm product of example 2 versus 20 ppm WS-3, both in 20 ppm menthol solution
  strength of solution B relative to solution C: comparable strength
[2]; Product C: 2.5 ppm product prepared in example 2
  sensory description of hard boiled sweet: “slow release cooling”, “giving a cold effect in the whole mouth”, “tingling pain sensation enhancing the cooling effect and “very longlasting”
[2]
  strength of products A, B and C relative to each other: comparable
Small group of panelists
  Concentration with cooling intensity similar to or slightly higher than that of a solution of menthol at 2 ppm: 0.2 ppm

## CC1CCC(C(C)C)C(C(=O)NCC(O)c2ccccc2)C1 (stereo not shown) [Example 1, 2-isopropyl-5-methyl-cyclohexanecarboxylic acid (2-hydroxy-2-phenylethyl)-amide]
Panel of flavourists; Example 3, solution B: 2 ppm product of example 1 dissolved in 20 ppm menthol aqueous solution
  sensory description of solution: “high initial cooling burst”, “long-lasting cooling”, “cold perception in whole mouth”, “some hotness”
Panel of flavourists; Example 3: 2 ppm product of example 1 versus 2 ppm WS-3, both in 20 ppm menthol solution
  strength of solution B relative to solution D: much stronger
Panel of flavourists; Example 3: 2 ppm product of example 1 versus 20 ppm WS-3, both in 20 ppm menthol solution
  strength of solution B relative to solution C: comparable strength
[2]; Product B: 5 ppm product prepared in example 1
  location of effect and aftertaste: in the whole mouth and has a tingling-cool aftertaste
[2]; Product B: 5 ppm product prepared in example 1, A = 50 ppm WS-3
  sensory description of hard boiled sweet: “giving a cold sensation which is not irritating” and “much more longlasting than A”
[2]
  strength of products A, B and C relative to each other: comparable
Small group of panelists
  Concentration with cooling intensity similar to or slightly higher than that of a solution of menthol at 2 ppm: 0.005 ppm
